Data reported in paper PMC5743680, “Bleogens: Cactus-Derived Anti-Candida Cysteine-Rich Peptides with Three Different Precursor Arrangements” (Frontiers in Plant Science, 2017).

Test: Heparin affinity chromatography
Type: binding
Conditions: TSKgel Heparin-5PW column, 10 mM phosphate buffer, pH 7.2
Experimental: Heparin binding chromatography was performed by high performance liquid chromatography (HPLC; Shimadzu, Japan). A linear gradient of mobile phase A (10 mM phosphate buffer, pH 7.2) and mobile phase B (0.75 M NaCl in 10 mM phosphate buffer, pH 7.2) was used with a TSKgel Heparin-5PW column ([…], 10 μm; Tosoh Bioscience, Japan).

For SIGGIR, the “binding to heparin HPLC affinity column” value was “did not bind”.
